Two molecules from patent publication US20110177161A1, “PHARMACEUTICAL COMPOSITIONS OF [5(S)-(2'-HYDROXYETHOXY)-20(S)-CAMPTOTHECIN” (DR. REDDY'S LABORATORIES LIMITED, priority 2007, published 2011) can be followed below.

The target in one data set is T1, Topoisomerase I (Homo sapiens, UniProt P11387).
T1 construct: purchased Topogen, Inc., Port Orange, Fla
T1 sequence (P11387 1-765): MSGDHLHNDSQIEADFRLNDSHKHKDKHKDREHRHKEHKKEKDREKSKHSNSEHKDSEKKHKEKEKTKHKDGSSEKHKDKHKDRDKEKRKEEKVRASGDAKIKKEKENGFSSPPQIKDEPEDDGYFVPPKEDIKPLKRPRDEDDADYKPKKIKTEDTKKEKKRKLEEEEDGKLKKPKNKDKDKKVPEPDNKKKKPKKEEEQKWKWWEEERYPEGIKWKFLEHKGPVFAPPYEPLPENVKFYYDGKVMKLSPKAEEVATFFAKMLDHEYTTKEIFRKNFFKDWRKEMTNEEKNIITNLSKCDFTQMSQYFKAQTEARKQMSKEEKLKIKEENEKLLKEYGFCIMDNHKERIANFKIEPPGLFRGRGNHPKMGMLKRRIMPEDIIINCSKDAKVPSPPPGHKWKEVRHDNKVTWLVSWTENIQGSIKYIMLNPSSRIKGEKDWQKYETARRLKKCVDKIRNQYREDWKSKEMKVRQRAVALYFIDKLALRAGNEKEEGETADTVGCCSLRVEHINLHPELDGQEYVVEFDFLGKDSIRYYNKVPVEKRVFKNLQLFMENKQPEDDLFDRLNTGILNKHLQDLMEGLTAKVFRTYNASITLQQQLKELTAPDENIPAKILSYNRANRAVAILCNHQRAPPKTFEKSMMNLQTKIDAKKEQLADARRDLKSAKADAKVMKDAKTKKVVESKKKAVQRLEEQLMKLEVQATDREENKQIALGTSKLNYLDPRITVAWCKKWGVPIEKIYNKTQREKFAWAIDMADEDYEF
As to the kind of experiment: Topoisomerase assay (TopoGEN Topo I Drug Screening Kit). Type of data set: biochemical. The source says:
Topoisomerase I introduces transient nicks in DNA at specific sites. Detection of these transient DNA nicks requires trapping the enzyme on DNA in a nicked intermediate complex using protein denaturants. The resulting covalent DNA/top I complexes contain nicked open circular DNA which can be detected by agarose gel electrophoresis (with ethidium bromide). Trapping nicked intermediates is relatively inefficient, however, inhibitors, such as the natural product camptothecin, stabilize the intermediate and lead to an increase in the nicked DNA product. This forms the basis for a mechanistic drug screen designed to allow detection of agents that affect topoisomerase I by stabilizing the cleaved intermediate complex.
The TopoGEN Topo I Drug Screening Kit (Topogen, Inc., Port Orange, Fla.) is designed to allow the investigator to quickly identify novel inhibitors of topoisomerase I. The kit allows the detection of novel compounds that either stabilize the nicked intermediate or otherwise inhibit catalytic activity of topoisomerase I.
The above reaction mixture is incubated at 37 degree C. for 30 minutes. The reaction is terminated by adding 2 μl of 10% SDS and the mixture is vortexed rapidly (SDS should be added while at 37 degree C. as cooling the tubes might reseal the nicked DNA). 10× Dye, about 2.5 μl per tube, is added and equal volumes of a mixture of chloroform and isoamyl alcohol (24:1) is added and centrifuged at 13000 rpm for 10 minutes. Samples are loaded on a 1% agarose gel and electrophoresed for 1 hour at 80 volts. The gel was viewed on UV transilluminator and the densitometric estimation of the bands was calculated.
The density of the DNA bands of both super coiled and relaxed forms of DNA was measured using the densitometer. The band intensity of treated (with single concentration of the test drug) and without the drug (i.e., the Control) were recorded. The percentage of relaxed form DNA compared to the supercoiled DNA was calculated for all the lanes including treated and control. • % inhibition of Topoisomerase activity was calculated as: […]

Data set [1] deals with Saos-2 cells over expressing non-functional BCRP mut#10. In words: cells. In kind it is cell-based, human. As to conditions: for IC50: Homo sapiens, SAOS-2, 144 h, read-out: BCRP mut#10 (IC50 (nM)). Here is the method:
(§1) The anticancer effect of 5(S)-(2′-hydroxyethoxy)-20(S)-camptothecin & 5(R)-(2′-hydroxyethoxy)-20(S)-camptothecin were evaluated versus the racemate 5(RS)-(2′-hydroxyethoxy)-20(S)-camptothecin on Saos-2 cells over expressing functional BCRP#4 and non-functional BCRP mut#10. The human osteosarcoma cell line, Saos-2, was obtained from ATCC (American Type Culture Collection, Cat#HTB-85, Manassas, Va.) and were maintained in DMEM containing 10% fetal bovine serum, 1% penicillin/streptomycin, and 2 mM glutamine. Saos-2 cells were transfected with either BCRP#4 to over express functional BCRP or BCRP#10 to over express non-functional BCRP transporter. The cells were plated in 96-well plates at a density of 1000 cells per each well in a 0.1 ml of medium and allowed to attach overnight. The next morning the medium was gently aspirated and serial dilutions of the compounds to be tested were added. The cells were incubated at 37° C. in a 5% CO2 incubator. After 6 days of exposure to the test drugs, 10µl of Alamar blue was added aseptically to each well and the plates were returned to the incubator for 6 hr. The amount of the fluorescent dye produced was measured on a Cytofluor.RTM. 2300 (Millipore, Bedford, Mass.) using an excitation wavelength of 530 nm and emission wavelength of 590 nm. The relative fluorescence units obtained were used to calculate the percentage growth at each concentration in relation to the untreated control values. From the percentage growth values the IC50 (inhibitory concentration required to inhibit the cell growth by 50% compared to control cells growth) values were derived.

For data set [2], the system named is Saos-2 cells over expressing functional BCRP#4. As to the kind of experiment: cells. In kind it is cell-based, human. To be noted: for IC50: Homo sapiens, SAOS-2, 144 h, read-out: BCRP mut#4 (IC50 (nM)). Here is the method: as §1

For `CC[C@@]1(O)C(=O)OCc2c1cc1n(c2=O)C(OCCO)c2cc3ccccc3nc2-1` (mixture of isomers) [5(RS)-(2′-hydroxyethoxy)-20(S)-camptothecin, reference compound], the IC50 against Topoisomerase I is 12500 nM; in data set [1], 387 nM; in data set [2], 1260 nM.
For the molecule `CC[C@@]1(O)C(=O)OCc2c1cc1n(c2=O)[C@@H](OCCO)c2cc3ccccc3nc2-1` [DRF-(5S,20S)-1042, 5(S)-(2′-hydroxyethoxy)-20(S)-camptothecin], at Topoisomerase I, the “fold more active than 5(R)-(2′-hydroxyethoxy)-20(S)-camptothecin in inhibiting topoisomerase I” value is reported as “about 21 fold” and the “times more active than 5(RS)-(2′-hydroxyethoxy)-20(S)-camptothecin in inhibiting topoisomerase I” value is “about 12 times”. For the same molecule, in data set [1], the “fold more cytotoxic than 5(R)-(2′-hydroxyethoxy)-20(S)-camptothecin” value is reported as around 6 fold and the 50% inhibitory concentration (IC50) stood at 213 nM. Moreover, in data set [2], the “fold more cytotoxic than 5(R)-(2′-hydroxyethoxy)-20(S)-camptothecin” value was above 2.5 fold and the half-inhibitory concentration (IC50) came to 788 nM.

As usually defined, the IC50 is the concentration that inhibits the measured activity by half.
